Reference: patent US20220030866A1, “CONJUGATES OF AUXIN ANALOGS” (The State of Israel, Ministry of Agriculture & Rural …, priority 2019, published 2022)
Marks after values point to notes of the source that are not given here.

What was measured:
Type in all cases: in vivo
[1] = test system: argan (Argania spinosa) cuttings; assay: rooting of argan cuttings; conditions: in vivo
Procedure: The ability of exemplary conjugates to promote rooting in plants which are recalcitrant to rooting (in addition to the results obtained with Eucalyptus grandis in Example 3) was examined using cuttings of argan (Argania spinosa) and jojoba (Simmondsia chinensis) in a commercial nursery (Shorashim). The argan and jojoba cuttings were treated with 100 μM of a conjugate (any of Compounds 10-1t) with 6000 ppm IBA. The common treatment T-8 (talc with 8000 ppm IBA and a fungicide) or 6000 ppm IBA (without conjugate) served as a control.
(§1) Exemplary conjugates were also tested for rooting the hard-to-root species of avocado (VC801 rootstock) and argan, according to procedures described hereinabove.

[2] = test system: avocado rootstock cuttings; assay: rooting of avocado rootstock cuttings; conditions: VC801 rootstock
From the text: Avocado rootstock is extremely difficult to root. Currently, the common technique for propagating clones of avocado rootstock is to graft the desired rootstock on a seedling, and transfer to the dark to generate an etiolated branch. This branch can be rooted and grafted with the desired variety while still grafted on the seed [Frolich & Platt, California Avocado Society 1971-72 Yearbook 1972, 55:97-109]. However, the preparation of such twice-grafted seedlings is time-consuming and expensive.
The ability of exemplary conjugates to promote rooting in green avocado cuttings (in the presence of IBA) was therefore examined. In particular, Compounds 2h (MCPA-methanol), 4b (NAA-β-alanine methyl ester), 3g (2-DP-methyl-4-aminobenzoate), 3f (2-DP-p-toluidine), 1l (4-CPA-morpholine) and is (4-CPA-D-Trp) were tested.
as §1

mung bean cuttings = assay: rooting of mung bean cuttings (number of adventitious roots per cutting); conditions: tested at 2, 10 or 50 μM
Procedure: Mung bean cuttings have been used for many years as a model for assessing the effect of plant hormones and synthetic chemicals on the rooting process. In the present study, this system was used to ascertain activity of conjugates in inducing adventitious root (AR) formation, and to evaluate the rate of conjugate hydrolysis that releases the free active auxin. […] The rooting activity in this system is determined by the number of adventitious roots per cutting.
The mung bean model was used to examine the activity of conjugates of three phenoxy acids, 4-CPA, MCPA, and 2-DP, on rooting. For comparison, plants were treated with (unconjugated) IBA or with 2-DP conjugated to glycine methyl ester (Gly-ME).

[3] = test system: cuttings from mature Eucalyptus grandis trees; assay: rooting of cuttings from mature Eucalyptus grandis trees; conditions: for root number compared to IBA control, in words: Example 12: 6000 ppm IBA and 50 μM conjugate dip plus spray
Procedure: Eight-year-old Eucalyptus grandis plants were grown from seeds and placed in a net house in 20 liter pots containing peat and tuff (70:30, v/v), drip irrigated and fertilized with 3 liters of Shefer™ 737 liquid fertilizer (ICL Fertilizers, Israel) per cubic meter of water. Cuttings were collected from branches which grew 2-2.5 meters above the ground. Cuttings were 2-3 mm thick branches, 15 cm long, with 1-2 pairs of leaves. The leaf blades were cut in half to decrease transpiration. Cuttings were treated with 6000 ppm IBA (potassium indole-3-butyric acid) for 1 minute with or without 100 μM of each tested compound. The tested compounds were either applied to the base of the cutting, with or without IBA and/or sprayed on the foliage in the presence of 0.05% Triton™ X-100 surfactant. Cuttings were rooted in rooting tables heated to 25° C. under constant 90% humidity, in a controlled-climate greenhouse. The rooting medium contained crushed polystyrene foam: vermiculite no. 3: pit (3:2:1, v/v/v). Rooting was recorded after 30-60 days. Roots system architecture was analyzed by WinRHIZO™ system scanner and software.
Exemplary conjugates prepared as described in Example 1 were tested for their ability to promote adventitious root (AR) formation in cuttings from mature eucalyptus (Eucalyptus grandis) trees. In this model, AR formation is difficult to induce, with 5-15% root development in the presence of IBA potassium salt [Abu-Abied et al., Plant J 2012, 71:787-799], such that effective AR formation indicates a potent root formation activity.
Various concentrations and mode of applications were tested for each compound in the presence or absence of IBA (the “gold standard” rooting enhancer). A concentration of 100 μM of each conjugate was used for an initial screen of 37 conjugates, in which the compounds were applied to the base of the cutting by dipping (submerging the cutting base in a solution of the conjugate for one minute) or to the foliage by spraying. After 45 days, the cuttings were scored for the presence of callus or roots.
Conjugates prepared as described herein were evaluated in a Eucalyptus grandis rooting model, according to procedures such as described hereinabove. The bases of cuttings (a 12-15 cm long branch with the two upper leaves, whose blades were cut in half) were dipped in a solution containing 6000 ppm IBA potassium salt and 50 μM of conjugate for 1 minute, and the leaves were sprayed with 50 μM of the same conjugate (mixed with 0.5% Triton™ X-100 surfactant). The cuttings were imbedded in a heated (25° C.) rooting table containing a 1:2:3 ratio of peat:vermiculite:polystyrene, under 90% relative humidity.

DR5:venus marker = assay: auxin activity by DR5:venus fluorescence in Arabidopsis plants; conditions: 10 μM
Procedure: Imaging was performed using an SP8 Leica confocal microscope including solid-state lasers producing 405, 488, 514 and 552 nm light, and hybrid or PMT detectors. Objectives were either PL APO 20×/0.75, WD 0.62 mm or PL APO 63×/1.2 WD 0.3 mm. For fluorescence measurements, the Imaris™ spot detection option (Bitplane A.G.) was used to segment nuclei and calculate the average signal intensity.
One technique for assessing auxin activity of the 4-CPA amino acid conjugates utilized plants expressing nucleus-localized, fluorescent DR5:venus marker, the expression level of which is an indicator of intracellular auxin activity [Laskowski et al., PLoS Biol 2008, 6:e307]. Four days old seedlings grown on regular MS medium were transferred to plates containing 10 μM of the tested compounds and fluorescence was inspected by confocal microscope after 24 hours.
In order to assess the ability of the abovementioned sodium salts to penetrate the cells and activate an auxin response, an Arabidopsis DR5-Venus model was utilized (as described hereinabove). The plants were exposed to 10 μM of each compound for 24 hour; MS medium was used as a negative control, and the related Compounds 1p, 1r and 1t were used as positive controls.

Arabidopsis seedlings [4] = assay: root elongation inhibition in Arabidopsis seedlings; conditions: 50 nM, after 5 days
Procedure: (§2) Adventitious roots (ARs) were induced in intact plants, using previously described procedures [Gutierrez et al., Plant Cell 2009, 21:3119-3132; Abu-Abied et al., Plant J 2012, 71:787-799; Rasmussen et al., Plant Physiol 2012, 158:1976-1987]. Briefly, seeds were germinated on MS/0.8% agar plates supplemented with 3% sucrose. The plates were kept in the dark for 2 days at 4° C., then 5 days at 22° C. in the dark, 2 days in the light, 3 days in the dark and then additional 4 days in the light to complete 2 weeks when roots were counted using a stereoscope. Sensitivity to auxin and/or auxin analogs was determined by following root elongation on vertical plates. The 4-day-old seedlings were transferred to MS plates containing 0.05 or 0.5 μM IAA and the root length was measured after 5 days, including the number of LRs in each root and calculation of the LR density. Each treatment experiment included 10-15 plants and was repeated 3 times.
A common technique for evaluating auxin activity is by determining the ability of a compound to inhibit root elongation [Zolman et al., Genetics 2000, 156:1323-1337]. In order to use this assay for comparing auxin activities of different conjugates, the minimum concentration of free 4-CPA that is active in the root elongation inhibition assay was determined. Four days old seedlings were placed in vertical plates containing increasing concentrations of 4-CPA. The root lengths were marked daily during 5 days.
Based on the above results, the effect of conjugates of 4-CPA (Compounds 1o-1t) on root elongation after 5 days was determined at concentrations of 50 nM.

Arabidopsis seedlings [5] = assay: adventitious root formation in intact etiolated Arabidopsis seedlings
Procedure: as §2
In a third assay utilizing an Arabidopsis model, induction of adventitious root AR formation in intact plants was examined in the presence of 50 nM of tested compounds, which included 5 days incubation in the dark, followed by a shift to the light, according to procedures described by Sorin et al. [Plant Cell 2005, 17:1343-1359].
Conjugates prepared as described herein were evaluated in an Arabidopsis rooting model, according to procedures such as described hereinabove. Seeds were germinated and kept in the dark for 4 days. The etiolated seedlings were then incubated for 1 hour in 10 μM of each compound and then transferred to vertical MS medium-containing plates.

[6] = test system: Pinus halepensis cuttings; assay: rooting and root development in pine cuttings; conditions: 400 ppm IBA potassium salt + 5 ppm conjugate, 4 hours dip; 12 weeks
Procedure: The effects of exemplary D-amino acid conjugates of 4-CPA (Compounds to and Is) on rooting in Pinus halepensis cuttings were compared with those of 2-DP-glycine methyl ester conjugate (2-DP-Gly). Rooting mature pine cuttings (i.e., cuttings that are taken from trees more than 4 years old) is very difficult.
Apical cuttings were taken from 7-year-old trees, stored for 4 weeks at 4° C., and treated by dipping the cutting bases for 4 hours in the following solution: 400 ppm IBA potassium salt+5 ppm tested conjugate+0.1% Amistar™ fungicide (250 grams/liter azoxystrobin). The cuttings were evaluated after 12 weeks.

SMILES: COC(=O)[C@H](CC(N)=O)NC(=O)COc1ccc(Cl)cc1 [4-CPA-L-Asn-methyl ester]
- number of roots per cutting in argan clone YM3 compared to IBA control, in words [1]: considerably increased the number of roots per cutting
- root architecture / root length of VC801 avocado cuttings compared to IBA control, in words [2]: considerably increased root length

SMILES: COC(=O)[C@H](NC(=O)COc1ccc(Cl)cc1)C(C)C [Compound 1o]
- effect on AR formation in mung bean cuttings, in words (mung bean cuttings): induced rooting to a degree positively correlated with concentration
- appearance of the roots compared with IBA alone ([3]; 6000 ppm IBA with 100 μM compound, submersion and spraying): appeared more branched
- DR5 fluorescence (auxin activity), in words (DR5:venus marker): significantly lower fluorescence
- effect on root elongation relative to control, in words (Arabidopsis seedlings [4]): did not affect root elongation
- adventitious roots formed on average (Arabidopsis seedlings [5]; intact etiolated seedlings, 50 nM, FIG. 17 legend 10 μM for one hour): 0.5±0.3
- Degree of root development Medium (%) [6]: 14.3%
- Degree of root development Weak (%) [6]: 7.2%
- Degree of root development Well-developed (%) [6]: 71.4* %
- Rooting rate (%) [6]: 100%

SMILES: CC[C@H](C)[C@H](NC(=O)COc1ccc(Cl)cc1)C(=O)OC [4-CPA-L-Ile-methyl ester]
- root number compared to IBA control, in words [3]: promoted an increase in root number
- rooting of cuttings, repeated experiment in a different season ([3]; Example 12 repeat: 6000 ppm IBA with 50 μM conjugate, or IBA control): 50%
- number of roots per cutting in argan clone YM3 compared to IBA control, in words [1]: considerably increased the number of roots per cutting
- root architecture / root length of VC801 avocado cuttings compared to IBA control, in words [2]: more roots per cutting and considerably longer roots
- rooting of VC801 avocado cuttings ([2]; conjugate, or IBA control): 60%

SMILES: COC(=O)[C@H](Cc1cnc[nH]1)NC(=O)COc1ccc(Cl)cc1 [4-CPA-L-His-methyl ester]
- number of roots per cutting in argan clone YM3 compared to IBA control, in words [1]: considerably increased the number of roots per cutting
- root architecture / root length of VC801 avocado cuttings compared to IBA control, in words [2]: considerably increased root length

SMILES: COC(=O)[C@H](CC(C)C)NC(=O)COc1ccc(Cl)cc1 [4-CPA-L-Leu-methyl ester]
- root number compared to IBA control, in words [3]: promoted an increase in root number
- average number of adventitious roots (Arabidopsis seedlings [5]; Example 12: etiolated seedlings, 1 hour in 10 μM): 10
- number of roots per cutting in argan clone YM3 compared to IBA control, in words [1]: considerably increased the number of roots per cutting
- root architecture / root length of VC801 avocado cuttings compared to IBA control, in words [2]: considerably increased root length
